In paper PMC9338942, “(+)-Usnic acid and its salts, inhibitors of SARS‐CoV‐2, identified by using in silico methods and in vitro assay” (Scientific Reports, 2022):
Where two headings read alike, the source gives them in different places.

Key:
[1] = tested on: vero cells; settings: for Cell number to mock (%): single concentration 10 μM; for CC50: vero cells
[2] = tested on: SARS-CoV-2 (βCoV/Korea/KCDC/2020); assay: microbe, parasite or virus in culture; format: cell-based; settings: for inhibition at 10 µM: single concentration 10 μM, read-out: Inhibition of infection (%); for IC50: vero cells, immunofluorescence
[3] = in vitro; settings: African green monkey
[4] = tested on: COVID-19; design: method as in PMID 34480861; settings: phase 3 clinical trial; cited from earlier work
[5] = tested on: SARS-CoV; settings: mice, 30 mg/kg; cited from earlier work
[6] = tested on: COVID-19; design: method as in PMID 33903855; settings: cited from earlier work
[7] = tested on: SARS-CoV-2; settings: read-out: IC50, in vitro antiviral efficacy against SARS-CoV-2; cited from earlier work
[8] = tested on: SARS-CoV-2 pseudovirions; settings: at 30 μM; cited from earlier work
[9] = Severe acute respiratory syndrome coronavirus 2
[10] = assay with Delta var (B.1.617.2)
[11] = Severe acute respiratory syndrome coronavirus 2, original SARS-CoV-2 strain
[12] = assay with original SARS-CoV-2 strain
[13] = CC50, vero cells, assay with Alpha var (B.1.1.7)
[14] = CC50, vero cells, assay with Beta var (B.1.351)
[15] = CC50, vero cells, assay with Delta var (B.1.617.2)
[16] = CC50, vero cells, assay with original SARS-CoV-2 strain

## CO[C@H]1[C@H](O)[C@@H](O)[C@H](n2c3c(Cl)cccc3c3c4c(c5c6cccc(Cl)c6[nH]c5c32)C(=O)NC4=O)O[C@@H]1CO [Rebeccamycin, 1,11-Dichloro-12,13-dihydro-12-(4-O-methyl-β-D-glucopyranosyl)-5H-indolo[2,3-a]pyrrolo[3,4-c]carbazole-5,7(6H)-dione]
[1]
  Cell number to mock (%): 72.32%
[2]; [9]
  inhibition at 10 µM: 10.6%

## CCN(CC)CCCC(C)Nc1ccnc2cc(Cl)ccc12 (centres unmarked) [chloroquine]
[1]; assay with Beta var (B.1.351)
  CC50: > 150 µM
[1]; [10]
  CC50: > 150 µM
[2]; [11]
  IC50: 11.5 µM
[3]
  CC50: > 150 µM

## CCS(=O)(=O)N1CC(CC#N)(n2cc(-c3ncnc4[nH]ccc34)cn2)C1 [barcitinib, Barcitinib]
[4]
  reduction of 28-day mortality rate compared to placebo: 38.2%

## CC(=O)C1=C(O)[C@]2(C)C(=CC1=O)Oc1c(C(C)=O)c(O)c(C)c(O)c12 [KU, potassium usnate]
[1]; [12]
  CC50: > 50 µM
[2]; original SARS-CoV-2 strain
  IC50: 7.57 µM

## Cc1cccc(C)c1OCC(=O)N[C@@H](Cc1ccccc1)[C@@H](O)C[C@H](Cc1ccccc1)NC(=O)[C@H](C(C)C)N1CCCNC1=O [lopinavir]
[2]
  SI (selectivity index): 4.24
[2]; [11]
  IC50: 11.8 µM
[3]; [13]
  CC50: > 50 µM
[3]; [14]
  CC50: > 50 µM
[3]; [15]
  CC50: > 50 µM
[3]; [16]
  CC50: > 150 µM

## CCC(CC)COC(=O)[C@H](C)N[P@](=O)(OC[C@H]1O[C@@](C#N)(c2ccc3c(N)ncnn23)[C@H](O)[C@@H]1O)Oc1ccccc1 [remdesivir]
[1]; assay with Beta var (B.1.351)
  CC50: > 50 µM
[1]; [10]
  CC50: > 50 µM
[2]; [11]
  IC50: 7.42 µM
[2]; original SARS-CoV-2 strain
  SI (selectivity index): 6.74
[3]
  CC50: > 50 µM

## CN(C)C(=O)COC(=O)Cc1ccc(OC(=O)c2ccc(NC(=N)N)cc2)cc1 [camostat mesilate]
[5]
  survival level: above 60%
[6]
  efficacy in clinical trials for the treatment of COVID-19: did not show any particular efficacy

## Cc1ccc(N)cc1C(=O)N[C@H](C)c1cccc2ccccc12 [GRL0617]
[7]
  IC50: 2.1 µM

## CC(=O)c1c(O)c(C)c(O)c2c1OC1=CC(=O)C(C(C)=O)C(=O)[C@@]12C (single isomer, unassigned; (+)) [(+)-usnic acid]
[1]
  Cell number to mock (%): 94.69%
[2]
  SI (selectivity index): 6.26
[2]; [11]
  IC50: 7.99 µM
[2]; [9]
  inhibition at 10 µM: 61.6%
[3]; [13]
  CC50: 34.8 µM
[3]; [14]
  CC50: 32.4 µM
[3]; [15]
  CC50: > 50 µM
[3]; [16]
  CC50: > 50 µM

## C[C@]12C[C@@]34C=CC(=O)[C@@](C)(CCC(=O)Nc5c(O)ccc(C(=O)O)c5O)[C@@H]3[C@H](C[C@@H]1C4)O2 [Platensimycin, 3-[[3-[(1S,3S,4S,5aS,9S,9aR)-1,4,5,8,9,9a-Hexahydro-3,9-dimethyl-8-oxo-3H-1,4:3,5a-dimethano-2-benzoxepin-9-yl]-1-oxopropyl]amino]-2,4-dihydroxybenzoic acid]
[1]
  Cell number to mock (%): 109.23%
[2]; [9]
  inhibition at 10 µM: 3.16%

## CCOC(=O)[C@H]1O[C@@H]1C(=O)N[C@@H](CC(C)C)C(=O)NCCC(C)C [Aloxistatin]
[8]
  reduction of cell entry of SARS-CoV-2 pseudovirions: 92.5%

## COC1=CC(=O)[C@@]2(C)c3c(O)c(C)c(O)c(C(C)=O)c3O[C@@]2(OC)C1 [Mycousfuran A, (4aS,9bR)-6-acetyl-7,9-dihydroxy-3,4a-dimethoxy-8,9b-dimethyl-4H-dibenzofuran-1-one]
[1]
  Cell number to mock (%): 109.23%
[2]; [9]
  inhibition at 10 µM: 0.96%

## CC(=O)C1=C(O)C=C2Oc3c(C(C)=O)c(O)c(C)c(O)c3[C@]2(C)C1=O [NaU, sodium usnate]
[1]; [12]
  CC50: > 50 µM
[2]; original SARS-CoV-2 strain
  IC50: 5.33 µM
